Experimental data reported in ChEMBL document CHEMBL1129167, “Examination of the role of the duocarmycin SA methoxy substituents: Identification of the minimum, fully potent DNA binding subunit” (Bioorg Med Chem Lett, 1996).

Tested on: not listed separately
Test: Compound was evaluated for relative DNA alkylation efficiency.
Assay type: functional

Compound | krel
COC(=O)c1cc2c([nH]1)C(=O)C=C1N(C(=O)c3cc4cc(OC)c(OC)c(OC)c4[nH]3)C[C@H]3C[C@]123 [DUOCARMYCIN] | 1
COC(=O)c1cc2c([nH]1)C(=O)C=C1N(C(=O)c3cc4ccccc4[nH]3)C[C@H]3C[C@]123 (stereo in doubt; (+)-4) [listing 1 of 2 here] | 0.05
COC(=O)c1cc2c([nH]1)C(=O)C=C1N(C(=O)c3cc4ccc(OC)cc4[nH]3)C[C@H]3C[C@]123 (stereo in doubt; (+)-6) [listing 1 of 2 here] | 0.2
COC(=O)c1cc2c([nH]1)C(=O)C=C1N(C(=O)c3cc4cc(OC)ccc4[nH]3)C[C@H]3C[C@]123 (stereo in doubt; (+)-5) [listing 1 of 2 here] | 1
COC(=O)c1cc2c([nH]1)C(=O)C=C1N(C(=O)c3cc4cccc(OC)c4[nH]3)C[C@H]3C[C@]123 (stereo in doubt; (+)-7) [listing 1 of 2 here] | 0.1

Tested on: L1210
Test: In vitro cytotoxicity in L1210 cell lines
Assay type: functional, cell-based, Mus musculus

Compound | IC50
COC(=O)c1cc2c([nH]1)C(=O)C=C1N(C(=O)c3cc4cc(OC)c(OC)c(OC)c4[nH]3)C[C@H]3C[C@]123 [DUOCARMYCIN] | 0.1 nM
COC(=O)c1cc2c([nH]1)C(=O)C=C1N(C(=O)c3cc4ccc(OC)cc4[nH]3)C[C@H]3C[C@]123 (stereo in doubt; (+)-6) [listing 2 of 2 here] | 0.025 nM
COC(=O)c1cc2c([nH]1)C(=O)C=C1N(C(=O)c3cc4ccccc4[nH]3)C[C@H]3C[C@]123 (stereo in doubt; (+)-4) [listing 2 of 2 here] | 0.065 nM
COC(=O)c1cc2c([nH]1)C(=O)C=C1N(C(=O)c3cc4ccccc4[nH]3)C[C@H]3C[C@]123 (stereo in doubt; (-)-4) | 1.7 nM
COC(=O)c1cc2c([nH]1)C(=O)C=C1N(C(=O)c3cc4cc(OC)ccc4[nH]3)C[C@H]3C[C@]123 (stereo in doubt; (+)-5) [listing 2 of 2 here] | 0.01 nM
COC(=O)c1cc2c([nH]1)C(=O)C=C1N(C(=O)c3cc4ccc(OC)cc4[nH]3)C[C@H]3C[C@]123 (stereo in doubt; (-)-6) | 1.3 nM
COC(=O)c1cc2c([nH]1)C(=O)C=C1N(C(=O)c3cc4cc(OC)ccc4[nH]3)C[C@H]3C[C@]123 (stereo in doubt; (-)-5) | 0.3 nM
COC(=O)c1cc2c([nH]1)C(=O)C=C1N(C(=O)c3cc4cccc(OC)c4[nH]3)C[C@H]3C[C@]123 (stereo in doubt; (-)-7) | 1.8 nM
COC(=O)c1cc2c([nH]1)C(=O)C=C1N(C(=O)c3cc4cccc(OC)c4[nH]3)C[C@H]3C[C@]123 (stereo in doubt; (+)-7) [listing 2 of 2 here] | 0.06 nM
